Assay results published in patent US20260344670A1, “BIXLOZONE MIXTURES WITH PETHOXAMID” (FMC CORPORATION, priority 2022, published 2026).

Assays:
Format in all cases: in vivo
[1] = tested on: weeds; assay: Example 3: pre-emergence weed control on corn at relatively high application rates of pethoxamid (Tables 8-11); conditions: 1200 g/ha pethoxamid
Text: [formula] • where ppm=milligrams of active ingredient (=a.i.) per liter of spray mixture X=% action by component A using p ppm of active ingredient Y=% action by component B using q ppm of active ingredient. If the ratio R defined as the action actually observed (O) divided by the expected action (E) is >1 then the action of the combination is superadditive, i.e. there is a synergistic effect. For a more detailed description of the Colby formula, see Colby, S. R. “Calculating Synergistic and Antagonistic Responses of Herbicide Combination”, Weeds, Vol. 15, pages 20-22; 1967; see also Limpel et al., Proc. NEWCC 16:48-53 (1962).
As used herein, rating timings correspond to the following: A1=weed assessment at BBCH 11-12; A2=4 weeks after the application; A3=when ZEAMX crop reaches BBCH 18 (row closure); and A4=BBCH 51-59 of the ZEAMX crop.
The herbicidal compounds bixlozone and pethoxamid were applied in a variety of forms and at a variety of amounts, application rates, and normalities. Efficacy of the herbicidal compositions was evaluated with reference to a scale of 0% to 100% in comparison with untreated control plots. 0 means no damage to the harmful plants and 100 means complete destruction of the harmful plants. Plants per square meter is indicated by “pl/m^2”, and grams per hectare is indicated by “g/ha”. […]

[2] = tested on: weeds; assay: Example 4: pre-emergence weed control on corn at relatively medium application rates of pethoxamid (Table 12); conditions: 800 g/ha pethoxamid
Experimental: (§1) The herbicidal compounds bixlozone and pethoxamid were applied in a variety of forms and at a variety of amounts, application rates, and normalities. Efficacy of the herbicidal compositions was evaluated with reference to a scale of 0% to 100% in comparison with untreated control plots. 0 means no damage to the harmful plants and 100 means complete destruction of the harmful plants. Plants per square meter is indicated by “pl/m^2”, and grams per hectare is indicated by “g/ha”. The acronym “EC” means emulsifiable concentrate (a liquid, homogenous formulation to be applied as an emulsion after dilution with water); “SC” means suspension concentrate (a stable suspension of active ingredient(s) with water as the fluid); “ZC” refers to a mixed formulation of CS and SC (a stable suspension of capsules and active ingredient(s) in a fluid, normally intended for dilution with water before use).
(§2) Various forms, compositions, and mixtures of bixlozone and pethoxamid were applied to corn before emergence. […] Mixtures of bixlozone with 800 g/ha pethoxamid improved weed spectrum on a range of broad leaf weeds (e.g., CHEAL and ABUTH) and grasses (e.g., ECHCG, DIGSA, and SETVI). Combinations of bixlozone and pethoxamid in pre-emergence applications were very safe with no clear pethoxamid rate effect.

[3] = tested on: weeds; assay: Example 5: pre-emergence weed control on corn at relatively low application rates of pethoxamid (Table 13); conditions: 300 g/ha pethoxamid
Experimental: as §1
as §2, with “300” for “800”, “SOLNI” for “CHEAL”, “ABUTH).” for “ABUTH) and grasses (e.g., ECHCG, DIGSA, and SETVI).”

Question: With `CC1(C)CON(Cc2ccc(Cl)cc2Cl)C1=O` [bixlozone] as the molecule, how does the “efficacy (in words)” value [1] read?
Answer: Its value is “minimal differences in performance between SC and CS were observed, except on CHEAL and ECHCG”.

Question: What about the “efficacy (in words)” value [2] of the same molecule?
Answer: Its value is “minimal differences in performance between SC and CS were observed, except on CHEAL and ABUTH”.

Question: And the “efficacy (in words)” value [3]?
Answer: Its value is “minimal differences in performance between SC and CS were observed, except on POLSS, SOLNI, ABUTH, and ECHCG”.
